Data as given in PubChem BioAssay (NCI).
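Results reflect a 48-hour exposure of cells in 96-well plates to compound at five concentrations. TGI is the concentration that stops growth completely.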

Tests used:
Assay in all cases: inhibition of tumour cell growth, NCI panel, 48 h
[1] = system: HOP-92 NSCLC
[2] = system: HOP-18 NSCLC
[3] = system: EKVX NSCLC
[4] = system: DMS 273 small cell lung
[5] = system: SK-MEL-5 melanoma
[6] = system: DMS 114 small cell lung
[7] = system: IGROV1 ovarian
[8] = system: UO-31 renal
[9] = system: LOX IMVI melanoma
[10] = system: HT29 colon
[11] = system: KM20L2 colon
[12] = system: A549 NSCLC
[13] = system: DLD-1 colon
[14] = system: M19-MEL melanoma
[15] = system: LXFL 529 NSCLC

Measured: TGI

Cc1ccc([N+](=O)[O-])cc1NC(=O)/C(CC(=O)c1sc(C(N)=S)nc1C)=N\N
> 100 µM: all assays above

CC(=O)OCc1ncccc1C(OC(C)=O)OC(C)=O
> 100 µM: all assays above

O=C(c1nc2ccc(Cl)cc2[nH]c1=O)C(O)c1cccc([N+](=O)[O-])c1 (stereo not given)
40 µM: [9]
40.4 µM: [10]
17.6 µM: [6]
> 100 µM: all other assays above
